Several values for one entry are separate records, joined by “and”; a condition that tells them apart may be missing. Identical values can stand only once. Like-named read-outs stand apart in the source and are kept apart here.
Assays:
[1] = lung; cited from earlier work
[2] = tested on: Herpes simplex virus type I (Seibert strain); experiment: microbe, parasite or virus in culture; format: cell-based; conditions: read-out: Plaque Formation Efficiency, Acv
[3] = Acv concentration in guinea pig blood; format: in vivo; conditions: for concentration at 1 h: serum, 200 mg, one hour
Method: An Acv suspension or a mixture of Acv and an extract solution of Cryt. f.# was orally or intragastrointestinally administered to a guinea pig. One hour from the administration, blood was taken from the heart, and an inactivated serum was prepared therefrom in the same manner as in Test Example 9.
(§1) To a 100 μl aliquot of the serum were added 100 μl of acetonitrile and 20 μl of a 100 mM sodium acetate solution, and the mixture was centrifuged (10000 rpm×10 mins.).
(§2) The sample solution was separated into Acv and adenine by reverse phase liquid chromatography in a usual manner. Each peak area was measured with an automatic integrator, and the Acv content was obtained from the previously prepared calibration curve.

[4] = Acv level in mouse blood (p.o.); format: in vivo, DDY male mouse
Method: as §1, §2
Further, 0.5 ml of an Acv preparation or 0.5 ml of a mixture of Acv and a varied concentration of Cryt. f.# extract solution was orally administered to a 6-week-old DDY male mouse, and the Acv concentration in blood was measured in the same manner as described above. […] Accordingly, the Cryt. f.# extract solution is believed to have antiherpesviral activity by itself.

Compound: C=CC[C@@H]1/C=C(\C)C[C@H](C)C[C@H](OC)[C@H]2O[C@@](O)(C(=O)C(=O)N3CCCC[C@H]3C(=O)O[C@H](/C(C)=C/[C@@H]3CC[C@@H](O)[C@H](OC)C3)[C@H](C)[C@@H](O)CC1=O)[C@H](C)C[C@@H]2OC [FK 506]
- distribution [1]: concentrated in the lung

Compound: Nc1nc2c(ncn2COCCO)c(=O)[nH]1 [Acyclovir, acyclovir]
- activity at 0.35 µg/mL [2]: 53.6%
- effect of Cryt. f.# on Acv absorption ([3]; Table 12): it is not recognized that the Acv absorption was accelerated
- concentration at 1 h ([3]; Acv (200 mg) + 1 mg/ml of Cryt. f.#, individual samples, read-out: Acv Concentration in Blood): 76.4 µM
- concentration at 1 h ([3]; Acv (200 mg) + 1 mg/ml of Cryt. f.#, read-out: Acv Concentration in Blood, Mean ± σ): 92.9 ± 31.9 µM
- concentration at 1 h ([3]; Acv (200 mg) + 5 mg/ml of Cryt. f.#, individual samples, read-out: Acv Concentration in Blood): 92.9 µM
- concentration at 1 h ([3]; Acv (200 mg) + 5 mg/ml of Cryt. f.#, read-out: Acv Concentration in Blood, Mean ± σ): 88.3 ± 17.4 µM
- concentration at 1 h ([3]; Acv (200 mg) + 20 mg/ml of Cryt. f.#, read-out: Acv Concentration in Blood, Mean ± σ): 72.2 ± 70.4 µM
- concentration at 1 h ([3]; Acv (200 mg), read-out: Acv Concentration in Blood, Mean ± σ): 88.6 ± 85.6 µM
- concentration ([4]; Acv (10 mg/kg) p.o., read-out: Acv Blood Level, Mean ± σ): 2280 ± 1490 nM
- concentration ([4]; Acv (100 mg/kg) + 2 mg/ml of Cryt. f.#, p.o., individual samples, listed as Acv, 100 mg/kg, read-out: Acv Blood Level): 1700 nM and 1400 nM and 1600 nM and 2500 nM and 4700 nM and 2900 nM and 2000 nM and 2400 nM and 9500 nM and 2300 nM
- concentration ([4]; Acv (100 mg/kg) + 2 mg/ml of Cryt. f.#, p.o., read-out: Acv Blood Level, Mean ± σ): 3100 ± 2430 nM
- concentration ([4]; Acv (100 mg/kg) + 10 mg/ml of Cryt. f.#, p.o., individual samples, listed as Acv, 100 mg/kg, read-out: Acv Blood Level): 2300 nM and 1100 nM and 3500 nM and 1600 nM and 1900 nM and 2600 nM and 1500 nM and 5200 nM
- concentration ([4]; Acv (100 mg/kg) + 10 mg/ml of Cryt. f.#, p.o., read-out: Acv Blood Level, Mean ± σ): 2460 ± 1330 nM
- concentration ([4]; Acv (100 mg/kg) + 20 mg/ml of Cryt. f.#, p.o., read-out: Acv Blood Level, Mean ± σ): 2590 ± 1530 nM
- effect of Cryt. f.# on Acv concentration in blood ([4]; mouse, Table 13): no increase in Acv concentration in blood was observed
